Source: ChEMBL document CHEMBL5620392, “Spiroindole-containing compounds bearing phosphonate group of potential Mpro-SARS-CoV-2 inhibitory properties” (Eur J Med Chem, 2023)

Experiments:
[1] = Selectivity index, ratio of CC50 for African green monkey Vero E6 cells to IC50 for SARS-CoV-2 infected in African green monkey Vero E6 cells; format: toxicity; settings: read-out: Selectivity Index
[2] = Cytotoxicity against African green monkey Vero E6 cells assessed as reduction in cell viability; format: toxicity, cell-based, Vero C1008; settings: chlorocebus sabaeus
SARS-CoV-2 [3] = assay: Antiviral activity against SARS-CoV-2 infected in African green monkey Vero E6 cells assessed as inhibition of viral infection; format: functional, organism-based; settings: Severe acute respiratory syndrome coronavirus 2, Vero C1008
SARS-CoV-2 [4] = assay: Antiviral activity against SARS-CoV-2 infected in African green monkey Vero E6 cells; format: functional, organism-based; settings: Severe acute respiratory syndrome coronavirus 2, Vero C1008

SMILES	selectivity ratio [1]	CC50 [2] [µM]	IC50 (SARS-CoV-2 [3]) [µM]	EC50 (SARS-CoV-2 [4]) [µM]
NC(=O)c1nc(F)cnc1O	3.8	5260	1380	
CCN(CC)CCCC(C)Nc1ccnc2cc(Cl)ccc12 (stereo not drawn) [CHLOROQUINE]			25	
CCN(CCO)CCCC(C)Nc1ccnc2cc(Cl)ccc12 (stereo not drawn) [HYDROXYCHLOROQUINE]	9.7	356	36.9	
COc1cccc2[nH]c(C(=O)N[C@@H](CC(C)C)C(=O)N[C@@H](C[C@@H]3CCNC3=O)C(=O)CO)cc12 [PF-00835231]				≤ 0.23
